In patent US12410171B2, “Tropomyosin receptor kinase (TRK) degradation compounds and methods of use” (Cullgen (Shanghai), Inc., priority 2020, dated 2025):
Read-outs that look alike come from different tables or passages of the source.

What was measured:
[1] = target: T1, TPM3-TRKA fusion protein (Homo sapiens, UniProt P04629); experiment: TPM3-TRKA fusion protein levels in KM12 cells (Western blot); format: cell-based; details: read-out: Degradation (at 10 nM)
T1 construct: The resulted chimeric proteins always retain the kinase domain of TRK proteins; TPM3 (fusion partner, N-terminal part of tropomyosin alpha-3, P06753); endogenous in cells; host or cells: KM12 colon cancer cells; the other entry of the earlier key: TPM3 (P06753, Tropomyosin alpha-3 chain)
How it was run: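 KM12 colon cancer cells were treated with DMSO or compounds at 0.1–100 nM, 0.4–30 nM or other stated concentrations for 4, 8–16 or 16 h. RIPA lysates were BCA-normalized and resolved by SDS-PAGE. TPM3-TRKA was detected by chemiluminescent Western blot, with bands quantified by densitometry.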

[2] = system: KM12 cells; experiment: KM12 cell viability (CellTiter-Glo); format: cell-based; details: Homo sapiens
How it was run: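 KM12 cells seeded at 5000 per well in RPMI 1640 + 10% FBS and exposed 3 days to serial dilutions (11-point 3-fold, 8-point 3-fold from 1000 nM, or 12-point 2-fold). Viability by CellTiter-Glo; IC50 from least-squares nonlinear regression.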

[3] = 16 h, TPM3-TRKA degradation in KM12 cells at 10 nM compound, category of percentage degradation
[4] = 72 h, KM12 cell viability, CellTiter-Glo, three days treatment, read-out: IC50

T1 sequence (P04629 with tags, fused parts or gaps): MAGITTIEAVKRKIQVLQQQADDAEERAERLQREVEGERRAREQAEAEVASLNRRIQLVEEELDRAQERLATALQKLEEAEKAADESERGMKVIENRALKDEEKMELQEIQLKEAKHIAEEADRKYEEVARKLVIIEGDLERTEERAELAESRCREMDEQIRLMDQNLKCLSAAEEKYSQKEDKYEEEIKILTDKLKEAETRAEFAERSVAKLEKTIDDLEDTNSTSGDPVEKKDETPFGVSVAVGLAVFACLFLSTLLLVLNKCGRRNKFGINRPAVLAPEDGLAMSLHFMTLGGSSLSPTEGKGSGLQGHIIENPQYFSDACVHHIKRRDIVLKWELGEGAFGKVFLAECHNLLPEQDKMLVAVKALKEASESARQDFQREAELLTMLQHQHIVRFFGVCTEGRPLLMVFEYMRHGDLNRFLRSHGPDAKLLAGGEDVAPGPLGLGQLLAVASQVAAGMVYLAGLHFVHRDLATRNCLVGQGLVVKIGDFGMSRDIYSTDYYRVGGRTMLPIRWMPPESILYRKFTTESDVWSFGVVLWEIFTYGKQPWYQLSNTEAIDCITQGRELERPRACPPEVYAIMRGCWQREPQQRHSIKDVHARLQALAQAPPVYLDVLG

SMILES	percent degradation of TPM3-TRKA protein at 0.01 µM [1, 3] [%]	IC50 [2, 4] [nM]	percent degradation of TPM3-TRKA protein at 0.01 µM ([1]; KM12, 16 h) [%]	IC50 ([2]; KM12, 72 h) [nM]
O=C1CCC(N2C(=O)c3ccc(CN4CCCC(N5CCN(c6ccc(C(=O)Nc7n[nH]c8ccc(Cc9cc(F)cc(F)c9)cc78)c(NC7CCOCC7)c6)CC5)C4)cc3C2=O)C(=O)N1 (centres unmarked) [TR-279, N-(5-(3,5-difluorobenzyl)-1H-indazol-3-yl)-4-(4-(1-((2-(2,6-dioxopiperidin-3-yl)-1,3-dioxoisoindolin-5-yl)methyl)piperidin-3-yl)piperazin-1-yl)-2-((tetrahydro-2H-pyran-4-yl)amino)benzamide]	> 80	19		
O=C1CCC(N2C(=O)c3ccc(N4CCC(N5CCN(c6ccc(C(=O)Nc7n[nH]c8ccc(Cc9cc(F)cc(F)c9)cc78)c(NC7CCOCC7)c6)CC5)CC4)cc3C2=O)C(=O)N1 (centres unmarked) [TR-280, N-(5-(3,5-difluorobenzyl)-1H-indazol-3-yl)-4-(4-(1-(2-(2,6-dioxopiperidin-3-yl)-1,3-dioxoisoindolin-5-yl)piperidin-4-yl)piperazin-1-yl)-2-((tetrahydro-2H-pyran-4-yl)amino)benzamide]			> 80	4.3
O=C1CCC(N2C(=O)c3ccc(CN4CCC(N5CCN(c6ccc(C(=O)Nc7n[nH]c8ccc(Cc9cc(F)cc(F)c9)cc78)c(NC7CCOCC7)c6)CC5)CC4)cc3C2=O)C(=O)N1 (centres unmarked) [TR-281, N-(5-(3,5-difluorobenzyl)-1H-indazol-3-yl)-4-(4-(1-((2-(2,6-dioxopiperidin-3-yl)-1,3-dioxoisoindolin-5-yl)methyl)piperidin-4-yl)piperazin-1-yl)-2-((tetrahydro-2H-pyran-4-yl)amino)benzamide]	> 80	17.4		
O=C1CCC(N2C(=O)c3ccc(N4CCOC(CN5CCN(c6ccc(C(=O)Nc7n[nH]c8ccc(Cc9cc(F)cc(F)c9)cc78)c(NC7CCOCC7)c6)CC5)C4)cc3C2=O)C(=O)N1 (centres unmarked) [TR-282, N-(5-(3,5-difluorobenzyl)-1H-indazol-3-yl)-4-(4-((4-(2-(2,6-dioxopiperidin-3-yl)-1,3-dioxoisoindolin-5-yl)morpholin-2-yl)methyl)piperazin-1-yl)-2-((tetrahydro-2H-pyran-4-yl)amino)benzamide]	> 80	6.3		
O=C1CCC(N2C(=O)c3ccc(C#CCN4CCN(c5ccc(C(=O)Nc6n[nH]c7ccc(Cc8cc(F)cc(F)c8)cc67)c(NC6CCOCC6)c5)CC4)cc3C2=O)C(=O)N1 (centres unmarked) [TR-283, N-(5-(3,5-Difluorobenzyl)-1H-indazol-3-yl)-4-(4-(3-(2-(2,6-dioxopiperidin-3-yl)-1,3-dioxoisoindolin-5-yl)prop-2-yn-1-yl)piperazin-1-yl)-2-((tetrahydro-28-pyran-4-yl)amino)benzamide]	> 80	54		
O=C1CCC(N2C(=O)c3ccc(N4CCC(N5CCN(c6ccc(C(=O)Nc7n[nH]c8ccc(Cc9cc(F)cc(F)c9)cc78)c(NC7CCOCC7)c6)CC5)C4)cc3C2=O)C(=O)N1 (centres unmarked) [TR-284, N-(5-(3,5-difluorobenzyl)-1H-indazol-3-yl)-4-(4-(1-(2-(2,6-dioxopiperidin-3-yl)-1,3-dioxoisoindolin-5-yl)pyrrolidin-3-yl)piperazin-1-yl)-2-((tetrahydro-2H-pyran-4-yl)amino)benzamide]	> 80	5		
O=C1CCC(N2C(=O)c3ccc(CN4CCC(N5CCN(c6ccc(C(=O)Nc7n[nH]c8ccc(Cc9cc(F)cc(F)c9)cc78)c(NC7CCOCC7)c6)CC5)C4)cc3C2=O)C(=O)N1 (centres unmarked) [TR-285, N-(5-(3,5-difluorobenzyl)-1H-indazol-3-yl)-4-(4-(1-((2-(2,6-dioxopiperidin-3-yl)-1,3-dioxoisoindolin-5-yl)methyl)pyrrolidin-3-yl)piperazin-1-yl)-2-((tetrahydro-2H-pyran-4-yl)amino)benzamide]	> 80	9.7		
